{
  "source": "patent US20040214803A1",
  "about": "“Use of vitamin d3 analogue for the treatment of autoimmune diabetes” (priority 2001, published 2004)",
  "system": "IL-12p75",
  "assay": "LPS-induced IL-12 production in vivo (serum ELISA)",
  "parameters": "species or system mouse",
  "procedure": "Lymphokine production was induced in 8 week-old female NOD mice by i.p. injection of 400 μg/mouse Salmonella abortus equi LPS (Sigma). Compound A was administered 72, 48, 24, and 1 h prior to LPS. Blood samples were collected 3 h post LPS injection and serum cytokines measured by ELISA.\nCytokines were quantified by two-sites ELISA. IFN-γ was determined using paired mAb from PharMingen (San Diego, Calif.). For capture, the mAb was AN-18.17.24. Samples were titrated and incubated overnight at 4° C. To detect bound IFN-γ plates were then incubated with biotinylated XMG1.2 mAb. […] The plates were washed again and incubated with the developing substrate p-nitrophenylphosphate disodium (Sigma) in diethanolamine buffer (pH 9.6; 100 μl/well). The reaction was stopped by adding 50 μl/well NaOH 3N, and absorbance was read at 405 nm. ELISA for IL-12p75 was performed as described (Gately, M. K., et al., Current Protocols Immunol. 1995, 3, 15:6.16.11-16.16.15). Cytokines were quantified from two to three titration points using standard curves generated by purified recombinant mouse cytokines and results expressed as cytokine concentration in ng or pg/ml. Detection limits were 15 pg/ml for both cytokines. […]\nFIG. 3. […] IFN-γ, IL-12p75 and serum calcium levels were quantified 3 h post LPS injection. […] The P values were calculated by Mann-Whitney U test (* indicates P<0.05 vs. vehicle-treated NOD mice).",
  "data": [
    {"smiles": "C[C@H](C/C=C\\C(O)(C(F)(F)F)C(F)(F)F)C1=CC[C@H]2/C(=C/C=C3C[C@@H](O)C[C@H](O)C3)CCC[C@]12C", "note": "[Compound A, 1,25-dihydroxy-16,23Z-diene-26,27-hexafluoro-19-nor vitamin D3]", "values": [
      {"measurement": "LPS-induced IL-12p75 production", "setting": "0.03 μg/Kg per os 72, 48, 24, 1 h before LPS, serum 3 h post LPS", "result": "inhibited significantly"},
      {"measurement": "potency in inhibiting LPS-induced IL-12p75 and IFN-γ production relative to 1,25(OH)2D3", "setting": "higher than 1,25(OH)2D3 (literature comparison)", "result": "about 100 fold"}
    ]}
  ]
}
